The source of these data is paper PMC10810434, “Thymoquinone-protoflavone hybrid molecules as potential antitumor agents” (PLOS ONE, 2024).

SMILES strings stand for the structures. Read-outs that look alike come from different tables or passages of the source.

The subject of test [1] is MDA-MB-231. In words: In vitro antiproliferative MTT assay on MDA-MB-231. It is filed as cell-based, human. The conditions noted are these: Homo sapiens, MDA-MB-231, up to 72 hours, mean of two independent measurements with three replicates each, read-out: Calculated IC50 ± SEM, MDA-MB-231. From the text:
(§1) Gynecological cancer cell lines of human origin including breast cancer like the triple negative MDA-MB-231 and estrogen receptor positive MCF-7, […] cervical adenocarcinoma (HeLa), and human glioblastoma (U-87) cell lines were used as in vitro models to study the antiproliferative effects of the evaluated compounds. All cell lines were cultivated in T-75 flasks in a minimal essential medium (MEM) supplemented with 10% heat-inactivated fetal bovine serum (FBS), 1% antibiotic-antimycotic mixture (penicillin-streptomycin-amphotericin B) and 1% non-essential amino acids. Non-cancerous human lung fibroblast cell line (MRC-5) was maintained in low glucose Dulbecco’s Modified Eagle Medium (DMEM) supplemented with 20% heat-inactivated FBS, 1% antibiotic-antimycotic mixture and 4 mM L-glutamine. The cells were incubated at 37°C in 5% CO^2 incubator. The cells were seeded in 96-well plates at a density of 5 x 10^3 in 100 μL per well, except for the U-87 and MRC-5 that were seeded at 1 x 10^4 density and incubated at the same conditions for overnight to allow the cells’ attachment to the well’s bottom before the treatment.
(§2) The compounds were dissolved in dimethyl sulfoxide (DMSO) as 10 mM standard stock solutions and kept at -20°C with minimum light exposure. Immediately before each experiment, the stock solution was used and diluted with a culture medium to get the final concentrations. The values of half-maximal inhibitory concentration (IC50) were determined by exposure of the cells into eight different concentrations of each tested compound (0.39, 0.78, 1.56, 3.125, 6.25, 12.5, 25 and 50 μM). Temozolomide (TMZ) and cisplatin were used as positive controls in the case of U-87 and the gynecological cell lines, respectively. The negative control wells included the cells with only MEM treatment. The plates were incubated for up to 72 hours under the same abovementioned incubation conditions. The colorimetric MTT assay was used to assess the compounds’ effect on cell proliferation. Briefly, 20 μL of MTT solution ([3-(4,5-dimethylthiazol-2-yl)-2,5-diphenyltetrazolium bromide], 5 mg/mL in PBS, Duchefa Biochemie BV, Haarlem, The Netherlands) was added to each well including the negative controls and kept under the usual incubation circumstances for additional four hours. Subsequently, the media was carefully aspirated and 100 μL of DMSO was added to each well and the plates were gently shaken for 30 min to solubilize the precipitated crystals of purple formazan. Absorbance was measured at a wavelength of 545 nm using a microplate UV-VIS reader (SPECTROstar Nano, BMG Labtech GmbH, Offenburg, Germany). The same procedure was performed using MRC-5 cells to determine the cancer selectivity of the most promising test compounds.
(§3) Cell viability data were collected from two separate experiments in triplicates and evaluated using GraphPad Prism 9.5.1 (GraphPad Software Inc., San Diego, CA, USA). The half-maximal inhibitory concentration (IC50) values were determined using the log inhibitor vs normalized response nonlinear regression model. Difference between the IC50 values of a hybrid and its corresponding fragments’ experimental combination was statistically evaluated using unpaired T-test. Cancer selectivity of the most promising test compounds was characterized by calculating and comparing their selectivity index (SI). The value of the parameter derives from the ratio of IC50 value of test compound on MRC-5 cells and that on U-87 cells. The higher the value, the better the cancer selectivity of the test compound.

Test [2] has as its system MCF-7. Put plainly: In vitro antiproliferative MTT assay on MCF-7. The test is classed as cell-based, human. As to conditions: Homo sapiens, MCF7, up to 72 hours, mean of two independent measurements with three replicates each, read-out: Calculated IC50 ± SEM, MCF-7.
Description: as §1, §2, §3

For test [3], the system named is HeLa. Put plainly: In vitro antiproliferative MTT assay on HeLa. The conditions noted are these: Homo sapiens, HeLa, up to 72 hours, mean of two independent measurements with three replicates each, read-out: Calculated IC50 ± SEM, HeLa. It is filed as cell-based, human.
Description: as §1, §2, §3

Test [4] deals with U-87 glioblastoma cells. In words: In vitro antiproliferative MTT assay on U-87. It is filed as cell-based, human. The conditions noted are these: Homo sapiens.
Description: as §1, §2, §3
(In general: Tetrazolium assays rely on reduction of a dye to a coloured formazan, in cell work by metabolically active cells.)

For test [5], the system named is MRC-5 non-cancerous human lung fibroblast cell line. In words: In vitro antiproliferative MTT assay on MRC-5 (cancer selectivity). It is filed as cell-based.
Description: as §1, §2, §3

In test [6] the test system is U-87 cells. In words: Combination assay: equimolar fragment mixtures vs hybrids on U-87. The test is classed as cell-based, human. The procedure: as §2
Combination study was performed by treating cells with equimolar mixtures of the abovementioned fragments or their hybrids, and corresponding cell viability data were comparatively evaluated. In this bioassay, at least two separate experiments were performed, each in triplicate. The dataset was then subjected to appropriate statistical analysis. The calculated IC50 values were subsequently employed to quantitatively assess the extent of pharmacological benefit obtained through the hybridization of fragments in comparison to the cytotoxic effect produced by the experimental combination of PA or its derivatives and TQ fragments.
as §3

Test [7] has as its system MDA-MB-231, MCF-7, HeLa, U-87. In words: In vitro antiproliferative MTT assay, cancer cell line panel. It is filed as cell-based. As to conditions: Homo sapiens; all tested cancer cell lines; read-out: IC50 values against cancer cells (range over cell lines). An excerpt: Gynecological cancer cell lines of human origin including breast cancer like the triple negative MDA-MB-231 and estrogen receptor positive MCF-7, […] cervical adenocarcinoma (HeLa), and human glioblastoma (U-87) cell lines were used as in vitro models to study the antiproliferative effects of the evaluated compounds. All cell lines were cultivated in T-75 flasks in a minimal essential medium (MEM) supplemented with 10% heat-inactivated fetal bovine serum (FBS), 1% antibiotic-antimycotic mixture (penicillin-streptomycin-amphotericin B) and 1% non-essential amino acids. […]
The compounds were dissolved in dimethyl sulfoxide (DMSO) as 10 mM standard stock solutions and kept at -20°C with minimum light exposure. […] Absorbance was measured at a wavelength of 545 nm using a microplate UV-VIS reader (SPECTROstar Nano, BMG Labtech GmbH, Offenburg, Germany). […]
Cell viability data were collected from two separate experiments in triplicates and evaluated using GraphPad Prism 9.5.1 (GraphPad Software Inc., San Diego, CA, USA). The half-maximal inhibitory concentration (IC50) values were determined using the log inhibitor vs normalized response nonlinear regression model. Difference between the IC50 values of a hybrid and its corresponding fragments’ experimental combination was statistically evaluated using unpaired T-test. […]

For `CC1=CC(=O)C(C(C)C)=C(CCC(=O)Oc2cc(O)c3c(=O)cc(C4(O)C=CC(=O)C=C4)oc3c2)C1=O` [Compound 14, 5-hydroxy-2-(1-hydroxy-4-oxocyclohexa-2,5-dien-1-yl)-4-oxo-4H-chromen-7-yl 3-(2-isopropyl-5-methyl-3,6-dioxocyclohexa-1,4-dien-1-yl)propanoate], the IC50 in test [1] is 520 ± 20 nM; in test [2], 1200 ± 30 nM; in test [3], 1060 ± 80 nM; in test [4] (MTT, up to 72 hours, mean of two independent measurements with three replicates each, read-out: Calculated IC50 ± SEM, U-87), 1160 ± 200 nM; in test [4] (Table 3, U-87 glioblastoma, read-out: Calculated IC50 ± SEM, U-87 (Table 3)) it was 1160 ± 200 nM; in test [5] (MRC5, Table 3, non-cancerous human lung fibroblasts, read-out: Calculated IC50 ± SEM, MRC-5), 5100 ± 210 nM. The concentration for half-maximal inhibition (IC50) in test [7] was in the range of 510 to 1200 nM. Further, the “Selectivity index SI = IC50 (MRC-5)/IC50 (U-87)” value in test [5] (MRC-5 vs U-87) is listed as 4.40. Besides, in test [6] (U-87 cells), the “Hybrid vs corresponding 1:1 fragment mixture, antiproliferative activity in words” value was “synergism”. Moreover, the “Fold stronger activity of hybrid than 1:1 mixture of its fragments” value in test [6] (U-87 glioblastoma cells, hybrid vs mixture of fragments 4 and 6) is reported as “ca. three”.

A word on the IC50: it is the concentration that inhibits the measured activity by half.
